Our source for the mean conditioning score values is patent EP1000623A1, “Use of epinastine as antitussivum” (Boehringer Ingelheim International GmbH, priority 1998, dated 2000).

Where a name gives a salt, the structure may show the parent alone.

The test system of the data set is place preference. The data set can be described thus: Place conditioning (conditioned place preference, shuttle box). It counts as in vivo, Male ICR mice. Particulars: 1 mg/kg, s.c.; mean ± S.E., n=8; time in drug-paired minus saline-paired place, 900-s session. How it is done:
Male ICR mice (6 weeks old; Tokyo Laboratory Animals Science Co., Ltd., Tokyo, Japan), weighing about 30 g, were used. They had free access to food and water in an animal room which was maintained at 22 ± 1°C with a 12-hour light-dark cycle. This study was carried out in accordance with the Declaration of Helsinki and/or with the guide for the care and use of laboratory animals as adopted by the committee on the care and use of laboratory animals of Hoshi University, which is accredited by the Ministry of Education, Science, Sports and Culture, Japan.
Place conditioning was conducted as previously using a minor modification of an unbaised procedure [J. Kamei et al., Eur. J. Pharmacol. 318 (1996) 251]. The apparatus used was a shuttle box (15 x 30 x 15 cm: w x 1 x h) which was divided into two compartments of equal size. […] The time spent in each compartment during a 900-s session was then measured in a blinded fashion by an infrared beam sensor (KN-80, Natume, Tokyo, Japan). […]
The potency ration was calculated according to a statistical program (Program 11 of the Pharmacological Calculations System) (8). Conditioning scores represent the time spent in the drug paired place minus the time spent in the saline-paired place, and are expressed as mean ± S.E. The Wilcoxon test was used to determine whether individual doses produced a significant conditioning (P<0.05).

`NC1=NCC2c3ccccc3Cc3ccccc3N12` (stereo not shown) [epinastine, epinastine hydrochloride]: the mean conditioning score amounted to 20.3 ± 61.8 s.
